One may read the IC50 as the midpoint of a concentration-inhibition curve.

These results are taken from patent US10688093B2, “Methods, compositions, and uses of novel Fyn kinase inhibitors” (priority 2015, dated 2020).

In test [1] the target is full-length recombinant human FYN A (Homo sapiens (Human), UniProt P06241). Kind of test: ADP-Glo Kinase Assay of FYN kinase inhibition. The test is classed as biochemical. The following applies: primary screen, initial compounds. A digest of the protocol:
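GST-tagged full-length FYN A (baculovirus, Sf9) at 3 pg preincubated 30 min RT with compound (10-point 3-fold series from 10 μM) in Tris pH 7.5/MgCl2 buffer. 12-mer tyrosine peptide plus 12.5 pmol ATP added, 90 min RT; ADP measured by ADP-Glo luminescence, IC50 from dose-response.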
(In general: In ADP-Glo the light output rises with the ADP produced.)

For test [2] the following is noted: cited from earlier work.

Chain of full-length recombinant human FYN A (P06241 whole entry): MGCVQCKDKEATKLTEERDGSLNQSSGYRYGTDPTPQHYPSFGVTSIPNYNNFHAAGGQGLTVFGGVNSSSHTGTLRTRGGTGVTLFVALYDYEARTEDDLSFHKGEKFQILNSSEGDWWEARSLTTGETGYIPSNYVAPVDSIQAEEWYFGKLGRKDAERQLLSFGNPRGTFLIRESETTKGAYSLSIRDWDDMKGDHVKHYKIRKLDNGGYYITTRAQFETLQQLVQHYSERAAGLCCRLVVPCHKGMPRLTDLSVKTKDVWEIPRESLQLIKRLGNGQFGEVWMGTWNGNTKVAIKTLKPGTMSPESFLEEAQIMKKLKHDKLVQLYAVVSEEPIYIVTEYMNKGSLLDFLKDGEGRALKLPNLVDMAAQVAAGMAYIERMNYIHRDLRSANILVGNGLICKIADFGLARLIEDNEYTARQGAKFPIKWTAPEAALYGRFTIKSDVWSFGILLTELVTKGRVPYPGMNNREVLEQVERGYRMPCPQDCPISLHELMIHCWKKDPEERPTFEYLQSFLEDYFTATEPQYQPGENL

As for `COC(=O)c1c(N)n(-c2cccc(O)c2)c2nc3ccccc3nc12` [Compound 600, methyl 2-amino-1-(3-hydroxy-phenyl)pyrrolo [3,2-b]quinoxaline-3-carboxylate], the IC50 in test [1] amounted to 2260 nM. Take `CN(C)S(=O)(=O)c1ccc2c(c1)/C(=C/c1cc3c([nH]1)CCCC3)C(=O)N2` [SU6656]: the “lipid utilization and energy utilization” value in test [2] (Fyn knockout strains) is reported as “no increase in either parameter”. For the same molecule, in test [2] (treated mice relative to untreated control mice), the fat mass entry is on record as “significantly reduced”.
